pKd: −log10 of the molar value. Activity calls are given as the source filed them. No cut-off for these calls is given here.
Key:
[1] = biological target: T1, Protein kinase C eta type (Homo sapiens, UniProt P24723); assay: Binding affinity to recombinant human PKCeta in after 2 hrs by microequilibrium dialysis assay
[2] = tested on: HeLa; assay: Drug uptake in human HeLa cells assessed as subcellular localization in endoplasmic reticulum at 10 uM after 6 hrs using blue-fluorescent IAF-tagged streptavidin staining by live cell microscopic analysis; format: ADME, cell-based
[3] = Binding affinity to mouse IAF-labeled immunoglobulin G mAb by immunoaffinity fluorescent method
[4] = tested on: HeLa; assay: Drug uptake in human HeLa cells assessed as subcellular localization in endoplasmic reticulum at 10 uM after 6 hrs using blue-fluorescent IAF-tagged streptavidin staining by live cell microscopic analysis presence of glycyrrhetic acid; format: ADME, cell-based
[5] = biological target: T1, Protein kinase C eta type; assay: Binding affinity to PKCeta in human HeLa cell lysates at 10 nM to 100 uM after 2 hrs by immunoprecipitation analysis
[6] = tested on: HeLa; assay: Drug uptake in human HeLa cells assessed as subcellular localization in endoplasmic reticulum at 25 uM after 6 hrs by live cell microscopic analysis; format: ADME, cell-based

T1 sequence (P24723 whole entry): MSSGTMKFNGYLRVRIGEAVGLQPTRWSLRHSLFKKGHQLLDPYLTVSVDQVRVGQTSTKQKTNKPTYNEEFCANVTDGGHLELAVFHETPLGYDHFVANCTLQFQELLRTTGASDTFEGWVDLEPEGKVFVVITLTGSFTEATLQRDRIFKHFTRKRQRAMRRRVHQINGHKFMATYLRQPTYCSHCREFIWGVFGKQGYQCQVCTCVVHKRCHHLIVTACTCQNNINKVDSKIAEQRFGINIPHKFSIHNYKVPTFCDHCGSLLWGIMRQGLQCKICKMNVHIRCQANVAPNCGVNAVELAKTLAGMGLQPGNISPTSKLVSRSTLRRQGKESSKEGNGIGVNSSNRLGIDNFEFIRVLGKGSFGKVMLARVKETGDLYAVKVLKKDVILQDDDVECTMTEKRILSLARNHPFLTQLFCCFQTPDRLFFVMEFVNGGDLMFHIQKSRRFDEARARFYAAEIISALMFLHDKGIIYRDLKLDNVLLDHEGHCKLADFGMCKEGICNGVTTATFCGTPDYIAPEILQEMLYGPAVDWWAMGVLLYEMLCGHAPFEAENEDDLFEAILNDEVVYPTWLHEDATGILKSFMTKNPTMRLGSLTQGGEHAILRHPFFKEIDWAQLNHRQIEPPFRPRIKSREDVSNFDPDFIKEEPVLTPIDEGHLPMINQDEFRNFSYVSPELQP

| pKd [1] | Drug uptake [2] | Activity [5] | Compound | further results |
| --- | --- | --- | --- | --- |
|  |  | inactive | CC1(C)[C@@H](O)CC[C@]2(C)[C@H]3C(=O)C=C4[C@@H]5C[C@@](C)(C(=O)NCCN=[N+]=[N-])CC[C@]5(C)CC[C@@]4(C)[C@]3(C)CC[C@@H]12 |  |
| 6.60 |  |  | CC1(C)[C@@H](O)CC[C@]2(C)[C@H]3C(=O)C=C4[C@@H]5C[C@@](C)(C(=O)O)CC[C@]5(C)CC[C@@]4(C)[C@]3(C)CC[C@@H]12 [ENOXOLONE] | Drug uptake [6]: Active |

Second part, the compound before the results:

| Compound | pKd [1] | Drug uptake [2] | Activity [5] | further results |
| --- | --- | --- | --- | --- |
| CN(C)c1ccc2c(CC(=O)NCCNC(=O)[C@@]3(C)CC[C@]4(C)CC[C@]5(C)C(=CC(=O)[C@@H]6[C@@]7(C)CC[C@H](O)C(C)(C)[C@@H]7CC[C@]65C)[C@@H]4C3)cc(=O)oc2c1 | 6.19 | Active |  | pKd [3]: 6.27; Drug uptake [4]: Not Active |
| CC1(C)[C@@H](O)CC[C@]2(C)[C@H]3C(=O)C=C4[C@@H]5C[C@@](C)(C(=O)NCCNC(=O)CCCC[C@@H]6SC[C@@H]7NC(=O)N[C@@H]76)CC[C@]5(C)CC[C@@]4(C)[C@]3(C)CC[C@@H]12 |  | Not Active |  |  |
| C#CCNC(=O)Cc1cc(=O)oc2cc(N(C)C)ccc12 |  |  | inactive |  |
